≈ marks a conversion by molar mass, not a printed value. Calls of active or inactive are those of the source. The calls are words filed in the database; no cut-off is given here.
Columns and labels:
Staphylococcus aureus [1] = assay: Antibacterial activity against vancomycin-intermediate resistant Staphylococcus aureus ATCC 700699/Mu50 assessed as reduction in bacterial growth incubated for 24 hrs by broth microdilution method; assay type: functional
Streptococcus pyogenes = assay: Antibacterial activity against Streptococcus pyogenes ATCC 12204 assessed as reduction in bacterial growth incubated for 24 hrs by broth microdilution method; assay type: functional
Enterococcus faecium [2] = assay: Antibacterial activity against clinical isolate Enterococcus faecium assessed as reduction in bacterial growth incubated for 24 hrs by broth microdilution method; assay type: functional
Enterococcus faecium [3] = assay: Antibacterial activity against Enterococcus faecium Efm-HS0649 assessed as reduction in bacterial growth incubated for 24 hrs by broth microdilution method; assay type: functional
Enterococcus faecium [4] = assay: Antibacterial activity against Enterococcus faecium Efm-HS06188 assessed as reduction in bacterial growth incubated for 24 hrs by broth microdilution method; assay type: functional
Staphylococcus aureus [5] = assay: Antibiofilm activity against vancomycin-intermediate resistant Staphylococcus aureus ATCC 700699/Mu50 at sub-MIC doses measured after 24 hrs by crystal violet staining based analysis; assay type: functional
Enterococcus faecium [6] = assay: Antibiofilm activity against Enterococcus faecium clinical isolate at sub-MIC doses measured after 24 hrs by crystal violet staining based analysis; assay type: functional
Pseudomonas aeruginosa [7] = assay: Antibiofilm activity against Pseudomonas aeruginosa ATCC 47085 at sub-MIC doses measured after 24 hrs by crystal violet staining based analysis; assay type: functional
Pseudomonas aeruginosa [8] = assay: Antibacterial activity against Pseudomonas aeruginosa ATCC 47085 assessed as reduction in bacterial growth incubated for 24 hrs by broth microdilution method; assay type: functional
Klebsiella pneumoniae = assay: Antibacterial activity against Klebsiella pneumoniae ATCC 13883 assessed as reduction in bacterial growth incubated for 24 hrs by broth microdilution method; assay type: functional
Acinetobacter baumannii = assay: Antibacterial activity against Acinetobacter baumannii ATCC 19606 assessed as reduction in bacterial growth incubated for 24 hrs by broth microdilution method; assay type: functional
Staphylococcus aureus [9] = assay: Antibiofilm activity against vancomycin-intermediate resistant Staphylococcus aureus ATCC 700699/Mu50 at 1/8 time MIC measured after 24 hrs by crystal violet staining based analysis; assay type: functional, organism-based
Enterococcus faecium [10] = assay: Antibiofilm activity against Enterococcus faecium clinical isolate at 1/8 times MIC measured after 24 hrs by crystal violet staining based analysis; assay type: functional, organism-based
Pseudomonas aeruginosa [11] = assay: Antibiofilm activity against Pseudomonas aeruginosa ATCC 47085 at 8 to 16 ug/ml measured after 24 hrs by crystal violet staining based analysis; assay type: functional, organism-based; conditions: dose 8-16 µg/ml

Compound `O=[N+]([O-])c1ccc(O)c(-c2csc(-c3cc(Cl)c(Cl)[nH]3)n2)c1` has an MIC (Staphylococcus aureus [1]) of over 256 µg/mL, an MIC (Streptococcus pyogenes) of 32 µg/mL (≈ 89.8 µM) and an MIC (Enterococcus faecium [2]) of over 256 µg/mL.

With `O=[N+]([O-])c1cc(-c2nc(-c3cc(C(F)(F)F)cc(Br)c3O)cs2)[nH]n1` the MIC (Staphylococcus aureus [1]) was 8 µg/mL (≈ 18.4 µM), the MIC (Streptococcus pyogenes) was 4 µg/mL (≈ 9.19 µM) and the MIC (Enterococcus faecium [2]) was over 256 µg/mL.

In the case of `COc1c(Cl)cc(Cl)cc1-c1csc(-c2[nH]c(Br)c(Br)c2Br)n1`, the MIC (Staphylococcus aureus [1]) was over 256 µg/mL, the MIC (Streptococcus pyogenes) was over 256 µg/mL and the MIC (Enterococcus faecium [2]) was over 256 µg/mL.

In the case of `Oc1c(F)cc(F)cc1-c1csc(-c2[nH]c(Br)c(Br)c2Br)n1`, the MIC (Staphylococcus aureus [1]) was over 256 µg/mL, the MIC (Streptococcus pyogenes) was over 256 µg/mL and the MIC (Enterococcus faecium [2]) was over 256 µg/mL.

In the case of `Oc1c(Br)cc(C(F)(F)F)cc1-c1csc(-c2cc(C(F)(F)F)n[nH]2)n1`, the MIC (Staphylococcus aureus [1]) was 8 µg/mL (≈ 17.5 µM), the MIC (Streptococcus pyogenes) was 16 µg/mL (≈ 34.9 µM) and the MIC (Enterococcus faecium [2]) was 8 µg/mL (≈ 17.5 µM).

For `CN[C@H](CC(C)C)C(=O)N[C@H]1C(=O)N[C@@H](CC(N)=O)C(=O)N[C@H]2C(=O)N[C@H]3C(=O)N[C@H](C(=O)N[C@H](C(=O)O)c4cc(O)cc(O)c4-c4cc3ccc4O)[C@H](O)c3ccc(c(Cl)c3)Oc3cc2cc(c3O[C@@H]2O[C@H](CO)[C@@H](O)[C@H](O)[C@H]2O[C@H]2C[C@](C)(N)[C@H](O)[C@H](C)O2)Oc2ccc(cc2Cl)[C@H]1O` [VANCOMYCIN], the MIC (Staphylococcus aureus [1]) was 8 µg/mL (≈ 5.52 µM), the MIC (Streptococcus pyogenes) was 0.25 µg/mL (≈ 0.173 µM) and the MIC (Enterococcus faecium [2]) was 16 µg/mL (≈ 11 µM). For the same compound, the MIC (Enterococcus faecium [3]) was over 256 µg/mL, the MIC (Enterococcus faecium [4]) was over 256 µg/mL and the Activity (Staphylococcus aureus [5]) was “inactive”. The Activity (Enterococcus faecium [6]) was “inactive” and the Activity (Pseudomonas aeruginosa [7]) was “inactive”.

Work on `Oc1c(Br)cc(Br)cc1-c1csc(-c2cc(Cl)c(Cl)[nH]2)n1` yielded an MIC (Staphylococcus aureus [1]) of over 256 µg/mL, an MIC (Streptococcus pyogenes) of over 256 µg/mL and an MIC (Enterococcus faecium [2]) of over 256 µg/mL.

Compound `Oc1ccc(C(F)(F)F)cc1-c1csc(-c2cc(Cl)c(Cl)[nH]2)n1` has an MIC (Staphylococcus aureus [1]) of 4 µg/mL (≈ 10.5 µM), an MIC (Streptococcus pyogenes) of 4 µg/mL (≈ 10.5 µM) and an MIC (Enterococcus faecium [2]) of over 256 µg/mL.

In the case of `COc1ccc(O)c(-c2csc(-c3cc(Cl)c(Cl)[nH]3)n2)c1`, the MIC (Staphylococcus aureus [1]) was over 256 µg/mL, the MIC (Streptococcus pyogenes) was over 256 µg/mL and the MIC (Enterococcus faecium [2]) was over 256 µg/mL.

`Oc1c(Br)cc(Br)cc1-c1csc(-c2cc(C(F)(F)F)n[nH]2)n1` gave an MIC (Staphylococcus aureus [1]) of 2 µg/mL (≈ 4.26 µM), an MIC (Streptococcus pyogenes) of 4 µg/mL (≈ 8.53 µM) and an MIC (Enterococcus faecium [2]) of 4 µg/mL (≈ 8.53 µM). The MIC (Pseudomonas aeruginosa [8]) was over 256 µg/mL, the MIC (Klebsiella pneumoniae) was over 256 µg/mL and the MIC (Acinetobacter baumannii) was over 256 µg/mL. The Activity (Staphylococcus aureus [5]) was over 60%, the Activity (Enterococcus faecium [6]) was over 60% and the Activity (Pseudomonas aeruginosa [7]) was over 60%. For the same compound, the Activity (Staphylococcus aureus [9]) was “Active”, the Activity (Enterococcus faecium [10]) was “Active” and the Activity (Pseudomonas aeruginosa [11]) was “Active”.

Compound `O=[N+]([O-])c1cc(-c2nc(-c3cc(Br)cc(Br)c3O)cs2)[nH]n1` has an MIC (Staphylococcus aureus [1]) of 8 µg/mL (≈ 17.9 µM), an MIC (Streptococcus pyogenes) of 2 µg/mL (≈ 4.48 µM) and an MIC (Enterococcus faecium [2]) of 16 µg/mL (≈ 35.9 µM). For the same compound, the MIC (Pseudomonas aeruginosa [8]) was over 256 µg/mL, the MIC (Klebsiella pneumoniae) was over 256 µg/mL and the MIC (Acinetobacter baumannii) was over 256 µg/mL. For the same compound, the Activity (Staphylococcus aureus [5]) was over 60%, the Activity (Enterococcus faecium [6]) was over 60% and the Activity (Pseudomonas aeruginosa [7]) was over 60%. The Activity (Staphylococcus aureus [9]) was “Active”, the Activity (Enterococcus faecium [10]) was “Active” and the Activity (Pseudomonas aeruginosa [11]) was “Active”.

For `Oc1c(Cl)cc(Cl)cc1-c1csc(-c2cc(Cl)c(Cl)[nH]2)n1`, the MIC (Staphylococcus aureus [1]) was over 256 µg/mL, the MIC (Streptococcus pyogenes) was over 256 µg/mL and the MIC (Enterococcus faecium [2]) was over 256 µg/mL.

Source: ChEMBL document CHEMBL5505986, “Design, synthesis and biological evaluation of thiazolyl-halogenated pyrroles or pyrazoles as novel antibacterial and antibiofilm agents” (Eur J Med Chem, 2024)
